US9868735B2, “Benzazepine ketone compounds as glycogen phosphorylase inhibitor, preparation method therefor, and medical uses” (CHENGDE MEDICAL UNIVERSITY, priority 2013, dated 2018)

Target: T1, rabbit muscle glycogen phosphorylase (GPa) (Oryctolagus cuniculus, UniProt P00489)
T1 sequence (P00489 2-843 limits assumed): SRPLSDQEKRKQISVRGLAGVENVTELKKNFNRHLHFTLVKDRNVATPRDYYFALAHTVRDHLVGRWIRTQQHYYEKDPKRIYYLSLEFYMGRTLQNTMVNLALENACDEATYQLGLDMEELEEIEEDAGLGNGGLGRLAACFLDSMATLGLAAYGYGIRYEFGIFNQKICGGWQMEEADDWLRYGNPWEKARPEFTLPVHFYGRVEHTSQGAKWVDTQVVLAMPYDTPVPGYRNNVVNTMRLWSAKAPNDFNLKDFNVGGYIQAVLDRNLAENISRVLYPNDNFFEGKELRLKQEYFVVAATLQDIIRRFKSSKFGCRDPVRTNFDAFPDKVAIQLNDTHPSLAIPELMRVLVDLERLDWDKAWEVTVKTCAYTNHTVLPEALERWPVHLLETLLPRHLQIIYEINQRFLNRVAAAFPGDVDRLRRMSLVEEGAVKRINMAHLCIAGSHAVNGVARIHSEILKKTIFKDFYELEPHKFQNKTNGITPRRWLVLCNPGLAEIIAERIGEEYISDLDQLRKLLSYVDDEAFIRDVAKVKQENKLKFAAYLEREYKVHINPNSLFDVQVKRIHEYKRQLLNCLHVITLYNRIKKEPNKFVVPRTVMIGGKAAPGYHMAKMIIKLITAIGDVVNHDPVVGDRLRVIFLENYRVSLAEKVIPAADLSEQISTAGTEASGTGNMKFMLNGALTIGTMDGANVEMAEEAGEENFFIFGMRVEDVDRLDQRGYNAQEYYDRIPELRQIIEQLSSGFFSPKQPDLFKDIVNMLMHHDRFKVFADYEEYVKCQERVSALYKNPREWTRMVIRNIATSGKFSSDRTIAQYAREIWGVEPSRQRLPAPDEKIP
Test: Glycogen phosphorylase in vitro inhibitory activity assay
Format: biochemical
Conditions: GPa 250 ng/100 μl, 30° C. 20 minutes, colorimetry at 655 nm
Method: Glycogen Phosphorylase In Vitro Inhibitory Activity Assay
Preparation of reagents: 1) preparation of color developing solution: 5 g of ammonium molybdate was weighed, dissolved in 500 ml of 1M HCl and stirred with a stirrer until completely dissolved. Then the mixture was added with 190 mg of malachite green with stirring until completely dissolved. The solution prepared was wrapped with an aluminum foil to protect it from exposure to light; 2) preparation of buffer: {circumflex over (1)} 0.5958 g of Hepes was precisely weighed and dissolved in 5 ml H2O. […]
Determination of dose-response curve of rabbit muscle glycogen phosphorylase activity: a dose-response curve was determined by reading OD values of various concentrations of GPa solutions at 655 nm after added with a color developing solution. The amount of GPa can be 250 ng as determined from the dose-response curve.
Experimental procedure: 1) designing PC (positive control), Blank (blank control), positive drug (caffeine); 2) adding 52 μl of reaction buffer; 3) adding the test compound to a final concentration; 4) adding 1 μl of enzyme to a final concentration of 250 ng/100 μl; 5) adding 150 μl of the color developing solution; 6) reacting at 30° C. for 20 minutes; 7) colorimetry determination at a wavelength of 655 nm; 8) reading data and calculating inhibitory activity: Inhibitory Activity=(PC−test sample)/(PC−Blank)

IC50: < 100 nM
Structure (SMILES): O=C(Nc1ccc2c(c1)C(=O)NCCO2)c1cc2cc(Cl)ccc2[nH]1 [Example 1, 7-(5-Chloro-1H-indole-2-carboxamido)-3,4-dihydrobenzo[f][1,4]oxazepin-5(2H)-one]
